Measurements as given in US20240208930A1, “CRYSTALLINE FORM OF SPHINGOSINE-1-PHOSPHATE RECEPTOR AGONIST” (LG CHEM, LTD., priority 2021, published 2024).
Entries after “also recorded” stand apart in the source; their conditions may differ.

Columns and labels:
[1] = Stability test (XRPD, naked eye observation, HPLC) after storage under accelerated and severe conditions; assay type: physicochemical
Description: To investigate the stability of Crystalline Form A, after storage for 2 weeks under accelerated (40° C./75% RH) and severe (80° C.) conditions, the physical stability was confirmed by naked eye observation and XRD measurement (FIG. 7), and chemical stability was confirmed by the analysis of the sample purity using HPLC (Table 3). HPLC equipment and analysis methods are represented in Table 1.
A stability test was carried out in the same manner as in Example 2. • (5) Results

[2] = DVS (dynamic vapor sorption); assay type: physicochemical
Description: Moisture sorption/desorption data were collected on a DVS Intrinsic instrument (Surface Measurement Systems). Samples were not dried prior to analysis. Sorption and desorption data were collected over the range of 5% to 95% RH with 10% RH increments under nitrogen. The equilibrium criterion used in the analysis was less than 0.0100% change in weight in 5 minutes with a maximum equilibration time of 3 hours. Data on the initial moisture content of the samples were not corrected. The results are represented in FIG. 6.

[3] = severe condition (80° C.), 2 weeks

CC(C)n1nc(Cl)c2cc(COc3ccc4c(c3)CCC(CN3CCC(C(=O)O)CC3)=C4Cl)ccc21 [amorphous form, 1-[1-chloro-6-(3-chloro-1-isopropyl-1H-indazol-5-ylmethoxy)-3,4-dihydro-naphthalen-2-ylmethyl]-piperidine-4-carboxylic acid]
time physically stable ([1]; 80° C.): at least 2 weeks | sample purity using HPLC ([1]; Accelerated condition (40° C./75% RH), 1 week): 98.1% | sample purity using HPLC ([1]; Accelerated condition (40° C./75% RH), 2 weeks): 98.8% | sample purity using HPLC ([1]; Accelerated condition (40° C./75% RH), 3 days): 98.8% | sample purity using HPLC ([1]; Initial): 100.7% | sample purity using HPLC ([1]; Severe condition (80° C.), 1 week): 87.2% | sample purity using HPLC ([1]; Severe condition (80° C.), 3 days): 90.7% | naked eye observation ([1]; after 2 weeks of severe condition (80° C.)): free-flowing particles that were broken when struck and bubble-like yellow masses | amount of impurities in the sample [1, 3]: increased | sample purity using HPLC [1, 3]: 77.3%

CC(C)n1nc(Cl)c2cc(COc3ccc4c(c3)CCC(CN3CCC(C(=O)O)CC3)=C4Cl)ccc21 [Crystalline Form A, 1-[1-chloro-6-(3-chloro-1-isopropyl-1H-indazol-5-ylmethoxy)-3,4-dihydro-naphthalen-2-ylmethyl]-piperidine-4-carboxylic acid]
change in the crystal form in XRPD ([1]; 2 weeks, accelerated (40° C./75% RH) and severe (80° C.) conditions): no change in the crystal form | physical/chemical stability ([1]; 2 weeks, accelerated (40° C./75% RH) and severe (sealed state, 80° C.) conditions): physically/chemically stable; also recorded: physical/chemical stability was confirmed | XRPD pattern of the solid retrieved after DVS [2]: XRPD patterns similar to the initial ones
